From US20120244089A1, “USE OF THIAZOLE COMPOUND IN FLAVOR APPLICATIONS” (priority 2009, published 2012)
“Also recorded” adds a separate entry of the source.

How the values were obtained:
[1] = Flavor evaluation in water by a trained sensory panel, 9-point hedonic scale; conditions: for Flavor Intensity: 9-point hedonic scale
Procedure: The flavor properties of 2-ethyl-4-methyl-2,5-dihydro-thiazole (Formula I), 4-ethyl-2-methyl-3-thiazole (Formula II), and 4-methyl-2-propyl-2,5-dihydro-thiazole (Formula III) in water were evaluated by a trained sensory panel using the 9-point hedonic scale.

[2] = Flavor evaluation in a soft drink sample (orange soda); conditions: 5 ppb
Procedure: The flavor properties of 2-ethyl-4-methyl-2,5-dihydro-thiazole were evaluated in a soft drink sample. An orange soda was used whose ingredients included carbonated water, high fructose corn syrup, citric acid, potassium benzoate, gum acacia, natural flavor, ester gum, yellow 6, brominated vegetable oil, and red 40.

[3] = Flavor evaluation in a beef broth sample; conditions: 4 ppb
Procedure: The flavor properties of 2-ethyl-4-methyl-2,5-dihydro-thiazole were evaluated in a beef broth sample. The beef broth sample included beef broth and less than 1% of the following: salt, MSG, hydrolyzed corn protein, hydrolyzed soy protein, hydrolyzed wheat protein, dextrose, onion powder, autolyzed yeast extract, caramel color, partially hydrogenated soybean oil, natural flavor, thiamine hydrochloride, disodium inosinate, and disodium guanylate.

[4] = Flavor description in water; conditions: 1 ppb
[5] = Flavor evaluation in a dairy product sample (mixed berry yogurt); conditions: 5 ppb
Procedure: The flavor properties of 2-ethyl-4-methyl-2,5-dihydro-thiazole were evaluated in a dairy product sample. A mixed berry yogurt sample was used whose ingredients included cultured pasteurized grade A nonfat milk, high fructose corn syrup, modified corn starch, nonfat milk, kosher gelatin, corn starch, tricalcium phosphate, natural flavor, potassium sorbate added to maintain freshness, sucralose (splenda brand,) acesulfame potassium, colored with annatto extract, vitamin A acetate, and vitamin D3.

[6] = Flavor evaluation in an oatmeal sample; conditions: plain instant oatmeal
Procedure: The flavor properties of 2-ethyl-4-methyl-2,5-dihydro-thiazole were evaluated in an oatmeal sample. Commercially available plain instant oatmeal was used whose ingredients included whole grain rolled oats, calcium carbonate, salt, guar gum, caramel color, reduced iron, niacinamide, vitamin A, palmitate, pyridoxine, hydrochloride, riboflavin, thiamin mononitrate, and folic acid.

In the case of `CCCC1N=C(C)CS1` (stereo not shown) [Formula III, 4-Methyl-2-propyl-2,5-dihydro-thiazole], the “Flavor Profile” value ([1]; 350 ppb) is reported as “Sulfury, nutty, and skunk; also recorded: Strong” and the “Flavor Intensity” value ([1]; 350 ppb) is reported as 3.33.
For `CCC1N=C(C)CS1` (stereo not shown) [Formula I, 2-ethyl-4-methyl-2,5-dihydro-thiazole], the Flavor effect [2] was “provided the feel of a tangerine soda and more natural taste and having cut the acidity”, the “Flavor Profile” value ([1]; 100 ppb) was “Tropical, fruit, peach,; also recorded: slightly catty, and meaty; also recorded: Very strong” and the “Flavor Intensity” value ([1]; 100 ppb) was 7.11. For the same molecule, the “Flavor character, comparison with analogs” value ([1]; summary of the panel results) was “unexpected strong and long-lasting fruity character; also recorded: superior to all other structurally closely related analogs”, the Flavor effect [3] was “boosted the roast note and imparted additional tropical note” and the Flavor notes [4] was “tropical fruit, catty, peach, and berry flavor notes”. For the same molecule, the Flavor effect [5] was “boosted the fruity note and imparted a peach note”, the Flavor effect ([6]; 1 ppb) was “added faint sulfurous note and synergized with grain note” and the Flavor effect ([6]; 5 ppb) was “sulfurous and peach notes”.
In the case of `CCC1=NC(C)SC1` (stereo not shown) [Formula II, 4-Ethyl-2-methyl-2,5-dihydro-thiazole], the “Flavor Profile” value ([1]; 1 ppm) is reported as “Nutty and cabbage” and the “Flavor Intensity” value ([1]; 1 ppm) is reported as 1.
